Like-named read-outs stand apart in the source and are kept apart here.
What was measured:
[1] = test system: A. muciniphila strain (MDA-JAX AM001); assay: Growth of A. muciniphila in BYEM10+ mucin medium (OD600 nm up to 48 hrs); type: cell-based, Akkermansia muciniphila
Procedure: SCFAs were added in 10 and 20 mM final concentration to bacterial culture. Growth of the bacteria at 37° C. in BYEM10+ mucin medium was read at OD600 nm continuously up to 48 hrs. Control Akkermansia culture was grown in absence of compounds.
Using a high-throughput screening strategy analyzing ˜1800 compounds, various other natural compounds in addition to SCFAs were identified for their potential to delay and/or suppress growth of MDA-JAX AM001. […] Growth of the bacteria at 37° C. in BYEM10+ mucin medium was read at OD600 nm continuously up to 48 hrs. Control Akkermansia culture was grown in absence of compounds.
Several active ruminal metabolites were also tested for their ability to delay and/or suppress growth of MDA-JAX AM001. Compounds were selected based on initial testing of Akkermansia growth in medium containing 1× to 3× concentrated ruminal fluid, followed by analysis of metabolite content by MALDI-TOF mass-spectrometry. Ruminal metabolite compounds tested included Malic acid (2 mM and 5.6 mM), 3-Indole acetic acid (5.6 mM and 8.6 mM), Hydrocinnamic acid (2.66 mM and 3.99 mM), Methylmalonic acid (8.4 mM and 10.6 mM), Glucoranic acid (16.8 mM), Galacturonic acid (14 mM), and Bis-hydroxy methyl propionic acid (22 mM). These ruminal metabolite compounds have also been found in human stool, as analyzed by MALDI-TOF mass spectrometry. […] Growth of the bacteria at 37° C. in BYEM10+ mucin medium was read at OD600 nm continuously up to 48 hrs. Control Akkermansia culture was grown in absence of compounds.

[2] = test system: A. muciniphila (MDA-JAX AM001); conditions: for mucin glycan utilization by A. muciniphila: physiological concentrations, varying pH, 48 hours of culture
Procedure: The impact of DR-induced metabolic changes in the colonic lumen on A. muciniphila behavior was also studied using an in vitro mucin glycan consumption assay. A novel A. muciniphila (MDA-JAX AM001) strain was isolated from the feces of C57BL6 mice and introduced to liquid media supplemented with PGM, and the effects of varying pH either alone or combined with the presence of physiological concentrations of acetate, propionate, and butyrate were evaluated.

[3] = test system: Akkermansia
[4] = test system: Akkermansia; assay: Dietary restriction in mice with narrow-spectrum antibiotics in the drinking water; type: in vivo; conditions: antibiotic in drinking water from 5 days prior to dietary restriction
Description: Diet is a major determinant of intestinal microbiome composition, and the indirect impact of RT on microbiome composition due to a reduction in intake of food in mice was investigated. Mice were individually housed in metabolic cages following RT to quantify effects of RT on food and water intake. Within 2 days following RT, mice had reduced their oral intake to approximately 2 grams a day, or a 50% reduction (FIG. 3A). To evaluate whether dietary restriction (DR) could impact intestinal microbiome composition and the colonic mucus layer, normal, un-irradiated mice were limited 2 grams of chow per mouse per day for 7 days.
Because commercially-available mice lacking Akkermansia are not easy to find (12), narrow-spectrum antibiotics were used to evaluate the specific contribution of Akkermansia to mucus thinning during DR.

[5] = test system: Akkermansia; assay: Total body radiotherapy (9 Gy RT) mice treated with azithromycin or propionate; type: in vivo; conditions: for colonic mucus layer thickness: 9 Gy total body RT; for colonic tissue levels of IL-1b, CCL2, CCL7, IL-22, CXCL1 and CXCL10 / ocular surface temperatures (hypothermia) / outgrowth of Akkermansia: day 6 after RT; for outgrowth of Akkermansia: 16S rRNA gene sequencing
Procedure: C57BL/6 mice were exposed to a single myeloablative dose of total body radiotherapy (9 Gy RT), and stool samples were evaluated 6 days later by 16S rRNA gene sequencing. […] Colonic tissue samples were cut cross-sectionally and mucus layer thickness was averaged across 8 equally-spaced circumferential sites (FIG. 7) to evaluate whether the dense colonic mucus layer, which normally separates bacteria-rich luminal contents from the colonic epithelium, was affected by irradiation in mice.
Additionally, ocular surface temperatures were non-invasively measured in mice using a published method (16) because in contrast to humans, mice are develop hypothermia in response to exposure to inflammatory ligands such as LPS (17) and in models of sepsis (18).
The degree of inflammation in colonic tissue was directed measured by quantifying levels of a panel of cytokines (FIG. 5C).

[6] = human, in vivo
Procedure: In this study, data from 295 patients with acute myeloid leukemia (AML) or myelodysplastic syndrome (MDS) who underwent allo-HSCT with tacrolimus and methotrexate as GVHD prophylaxis following conditioning therapy with fludarabine and 5 busulfan from 2011 to 2016 were retrospectively examined. The incidence of acute intestinal GVHD until day 100 after transplant was evaluated and compared were patients who received neither cefepime nor meropenem, those who received cefepime alone, those who received meropenem alone, and those who received both cefepime and meropenem during the period from days −10 to 30 relative to allo-HSCT infusion.
Retrospective study design. 295 patients with acute myeloid leukemia (AML) or myelodysplastic syndrome (MDS) underwent allogeneic hematopoietic stem cell transplantation (allo-HSCT) with fludarabine plus busulfan as conditioning therapy and tacrolimus and methotrexate as GVHD prophylaxis from 2011 and 2016 and were analyzed retrospectively. Patients were classified by antibiotic exposures, including those who received neither cefepime nor meropenem, those who received cefepime alone, those who received meropenem alone and those who received both cefepime and meropenem from day −10 to day 30 after allo-HSCT. Acute GVHD was diagnosed by clinical and/or pathological findings, and graded according to standard criteria (56).

[7] = Melphalan therapy in mice: intestinal microbiome and colonic mucus layer; type: in vivo; conditions: 6 days following melphalan 20 mg/kg, C57BL/6 mice
Description: Myeloablative RT, previously a foundational pillar that made HCT possible, has been progressively replaced by chemotherapy, particularly alkylating agents (11). […] An expansion of Bacteroides was also seen, though this was not statistically significant after correction for multiple comparisons, and was accompanied by a loss of Muribaculaceae, similar to that following RT.

[8] = Malic acid 2 and 5.6 mM, 3-Indole acetic acid 5.6 and 8.6 mM, Hydrocinnamic acid 2.66 and 3.99 mM, Methylmalonic acid 8.4 and 10.6 mM, Glucoranic acid 16.8 mM, Galacturonic acid 14 mM, Bis-hydroxy methyl propionic acid 22 mM
[9] = Brucine 2.5 and 5 mM, Methyl-β-D-galactopyranoside 14 mM, Resacetophenone 3.3 and 5 mM, Serotonin 4.7 and 7.1 mM
[10] = acidified drinking water (pH3), one week dietary restriction
[11] = 10 mM and 20 mM, vs mucin-only control, 37° C.
[12] = drinking water at neutral pH, dietary restriction

## O=C(O)Cc1c[nH]c2ccccc12 [3-Indole acetic acid]
[1]; [8]
  growth of MDA-JAX AM001: delay and inhibit MDA-JAX AM001 growth

## CC(CO)(CO)C(=O)O [Bis-hydroxy methyl propionic acid]
[1]; [8]
  growth of MDA-JAX AM001: delay and inhibit MDA-JAX AM001 growth

## COc1cc2c(cc1OC)[C@@]13CCN4CC5=CCO[C@H]6CC(=O)N2[C@H]1[C@H]6[C@H]5C[C@H]43 [Brucine]
[1]; [9]
  growth of MDA-JAX AM001: delay and suppress the growth of MDA-JAX AM001

## O=C[C@H](O)[C@@H](O)[C@@H](O)[C@H](O)C(=O)O [Galacturonic acid]
[1]; [8]
  growth of MDA-JAX AM001: delay and inhibit MDA-JAX AM001 growth

## O=C(O)CCc1ccccc1 [Hydrocinnamic acid]
[1]; [8]
  growth of MDA-JAX AM001: delay and inhibit MDA-JAX AM001 growth

## O=C(O)CC(O)C(=O)O (stereo not drawn) [Malic acid]
[1]; [8]
  growth of MDA-JAX AM001: delay and inhibit MDA-JAX AM001 growth

## CO[C@@H]1O[C@H](CO)[C@H](O)[C@H](O)[C@H]1O [Methyl-β-D-galactopyranoside]
[1]; [9]
  growth of MDA-JAX AM001: delay and suppress the growth of MDA-JAX AM001

## CC(C(=O)O)C(=O)O [Methylmalonic acid]
[1]; [8]
  growth of MDA-JAX AM001: delay and inhibit MDA-JAX AM001 growth

## CC(=O)c1ccc(O)cc1O [Resacetophenone]
[1]; [9]
  growth of MDA-JAX AM001: delay and suppress the growth of MDA-JAX AM001

## NCCc1c[nH]c2ccc(O)cc12 [Serotonin]
[1]; [9]
  growth of MDA-JAX AM001: delay and suppress the growth of MDA-JAX AM001

## CC(=O)[O-].[Na+] [acetate, sodium acetate]
[2]
  mucin glycan utilization by A. muciniphila: negligible effects on A. muciniphila behavior
[3]; [10]
  expansion of Akkermansia: no such preventative effect
  fecal / colonic luminal pH: lowering the pH in the colonic lumen
  thinning of the colonic mucus layer: no such preventative effect

## CC[C@H]1OC(=O)[C@H](C)[C@@H](O[C@H]2C[C@@](C)(OC)[C@@H](O)[C@H](C)O2)[C@H](C)[C@@H](O[C@@H]2O[C@H](C)C[C@H](N(C)C)[C@H]2O)[C@](C)(O)C[C@@H](C)CN(C)[C@H](C)[C@@H](O)[C@]1(C)O [azithromycin]
[4]
  bacterial populations depleted: depleted Akkermansia as well as some gram positive populations
  colonic mucus layer thinning during dietary restriction: prevented thinning of the colonic mucus layer
[5]
  colonic mucus layer thickness: effective in preserving colonic mucus layer thickness
  colonic tissue levels of IL-1b, CCL2, CCL7, IL-22, CXCL1 and CXCL10: reduced
  ocular surface temperatures (hypothermia): less depressed at day 6
  outgrowth of Akkermansia: very effective at preventing outgrowth of Akkermansia

## CCCC(=O)[O-].[Na+] [butyrate, sodium butyrate]
[2]
  mucin glycan utilization by A. muciniphila: negligible effects on A. muciniphila behavior

## CO/N=C(\C(=O)N[C@@H]1C(=O)N2C(C(=O)[O-])=C(C[N+]3(C)CCCC3)CS[C@H]12)c1csc(N)n1 [cefepime]
[6]
  Acute GVHD Grade 0, number of patients: 57
  Acute GVHD Grade 0, percentage of patients: (46%)
  Acute GVHD Grade I, number of patients: 26
  Acute GVHD Grade I, percentage of patients: (21%)
  Acute GVHD Grade II, number of patients: 34
  Acute GVHD Grade II, percentage of patients: (27%)
[6]; iv
  Acute GVHD Grade III-IV, number of patients: 7
  Acute GVHD Grade III-IV, percentage of patients: (6%)

## CC(C)CC(=O)O [isovalerate]
[1]; [11]
  growth of MDA-JAX AM001: suppress and/or delay MDA-JAX AM001 growth

## N[C@@H](Cc1ccc(N(CCCl)CCCl)cc1)C(=O)O [melphalan]
[7]
  changes in the intestinal microbiome: increase in the abundance of Akkermansia
  colonic mucus layer thickness: significantly thinner

## CCC(=O)[O-].[Na+] [propionate, sodium propionate]
[5]
  colonic mucus layer thickness: effective in preserving colonic mucus layer thickness
  colonic tissue levels of IL-1b, CCL2, CCL7, IL-22, CXCL1 and CXCL10: prevented elevation of all of these cytokines, with the exception of CXCL1
  ocular surface temperatures (hypothermia): less depressed at day 6
  outgrowth of Akkermansia: not effective
[2]; higher levels, OD 600
  growth of A. muciniphila: delays in growth
[2]
  mucin glycan utilization by A. muciniphila: inhibitory effects on mucin glycan utilization
[3]; [10]
  expansion of Akkermansia: mitigated expansion of Akkermansia
  fecal / colonic luminal pH: reduced fecal pH
  thinning of the colonic mucus layer: prevented thinning of the mucus layer
[3]; [12]
  expansion of Akkermansia: trended towards preventing Akkermansia expansion
  thinning of the colonic mucus layer: sufficient to prevent mucus thinning

## [H]/N=C(/N)N[C@H]1[C@H](O)[C@@H](O)[C@H](O[C@@H]2O[C@@H](C)[C@](O)(C=O)[C@H]2O[C@@H]2O[C@@H](CO)[C@H](O)[C@@H](O)[C@@H]2NC)[C@@H](N/C(N)=N\[H])[C@@H]1O [streptomycin]
[4]
  bacterial populations depleted: depleted certain gram-positive bacteria
  colonic mucus layer thinning during dietary restriction: Neither streptomycin nor vancomycin had a significant effect on mucus barrier loss

## CCCCC(=O)O [valerate]
[1]; [11]
  growth of MDA-JAX AM001: suppress and/or delay MDA-JAX AM001 growth

## CN[C@H](CC(C)C)C(=O)N[C@H]1C(=O)N[C@@H](CC(N)=O)C(=O)N[C@H]2C(=O)N[C@H]3C(=O)N[C@H](C(=O)N[C@H](C(=O)O)c4cc(O)cc(O)c4-c4cc3ccc4O)[C@H](O)c3ccc(c(Cl)c3)Oc3cc2cc(c3O[C@@H]2O[C@H](CO)[C@@H](O)[C@H](O)[C@H]2O[C@H]2C[C@](C)(N)[C@H](O)[C@H](C)O2)Oc2ccc(cc2Cl)[C@H]1O [vancomycin]
[4]
  bacterial populations depleted: depleted both gram-positive bacteria and some Bacteroidetes
  colonic mucus layer thinning during dietary restriction: Neither streptomycin nor vancomycin had a significant effect on mucus barrier loss

From patent US20240216410A1, “METHODS AND COMPOSITIONS FOR TREATING CANCER THERAPY-INDUCED NEUTROPENIC FEVER AND/OR GVHD” (BOARD OF REGENTS, THE UNIVERSITY OF TEXAS SYSTEM, priority 2021, published 2024)
